Measured values as given in PMC7238130, “Improved Dissolution and Pharmacokinetics of Abiraterone through KinetiSol® Enabled Amorphous Solid Dispersions” (Pharmaceutics, 2020).
Values after ≈ are worked out from the molar mass of the structure shown.

What was measured:
[1] = In vitro, non-sink, gastric transfer dissolution (0.01 N HCl then FaSSIF); assay type: physicochemical
Protocol: An in vitro, non-sink, gastric transfer dissolution method was developed to analyze the dissolution of abiraterone API, the generic abiraterone acetate tablets, the binary KSDs, to select ternary component for KSDs, as well as to analyze the dissolution of the ternary KSDs. For the dissolution analysis of abiraterone API and the binary and ternary KSDs, the samples (equivalent to 31 mg of abiraterone API) were loaded in an Erlenmeyer flask (dissolution vessel) containing 35 mL of 0.01N HCl (pH 2.0), placed in an incubator–shaker (Excella E24 (New Brunswick Scientific, Edison, NJ, USA)) set to 37 °C and a rotational speed of 180 rpm. After 30 min, 35 mL of FaSSIF (prepared in a 50 mM phosphate buffer at pH 6.8) was added to the dissolution vessel. At predetermined time points, samples were drawn from the dissolution vessel and centrifuged using an ultracentrifuge at 92,000 rpm for 90 s (Airfuge™, Beckman, Indianapolis, IN, USA). The supernatants were further diluted using the HPLC diluent and analyzed using the respective HPLC methods mentioned above. For the generic abiraterone acetate tablets, the whole tablet was analyzed, and the dissolution media volumes were scaled accordingly. For the selection of the ternary component, 35 mg of secondary polymer candidates were added in 35 mL of 0.01 N HCl (pH 2.0), and the dissolution of the binary KSD was conducted using the method described above. The area under the drug dissolution curve (AUDC) was calculated using the linear trapezoidal method.
For dissolution testing, we employed a two-stage, non-sink, gastric transfer dissolution method in which the sample is first exposed to acidic media, simulating fasted stomach content, followed by exposure to neutral-to-basic media, simulating fasted intestinal content.

[2] = set-up: method as in doi:10.1021/acs.jced.8b00566; conditions: cited from earlier work
[3] = set-up: method as in doi:10.1021/acs.jced.8b00566; conditions: cited from earlier work; remark: listed apart in the source
[4] = cited from earlier work; for FaSSIF solubility (converted): conversion of the µM value

SMILES | Percent Rel. AUDC0.01 N HCl (Relative to Lot 5 KSD) ([1]; 0.01 N HCl stage, 35 mg secondary polymer added externally where stated) [%] | Percent Rel. AUDCTotal (Relative to Lot 5 KSD) ([1]; 35 mg secondary polymer added externally to 35 mL 0.01 N HCl where stated) [%] | Percent Rel. AUDCFaSSIF (Relative to Lot 5 KSD) ([1]; FaSSIF stage, 35 mg secondary polymer added externally where stated) [%] | solubility ([1]; pH 6.8, FaSSIF stage of gastric transfer dissolution, read-out: average drug concentration (solubility) in FaSSIF media) [µg/mL] | water solubility [2] [µg/mL] | BCS (Biopharmaceutical Classification System) class [3] | permeability [3] | FaSSIF solubility [4] [µM] | FaSSIF solubility (converted) [4]
C[C@]12CC[C@H](O)CC1=CC[C@@H]1[C@@H]2CC[C@]2(C)C(c3cccnc3)=CC[C@@H]12 [Abiraterone API, Abiraterone] | 1.8 | 8.4 | 46.2 | 11.3 (≈ 32.4 µM) | 3.05 (≈ 8.73 µM) | Class IV | low | 12.7 ± 4.2 | ~ 4.43 µg/mL
CC(=O)O[C@H]1CC[C@@]2(C)C(=CC[C@@H]3[C@@H]2CC[C@]2(C)C(c4cccnc4)=CC[C@@H]32)C1 [abiraterone acetate, Abiraterone acetate] | – | – | – | – | – | – | – | 64.6 ± 5.2 | ~ 25.29 µg/mL
